# Assay results published in patent US20090143454A1, “Pyrazoline Derivatives and Their Use As Pesticides” (BAYER CROPSCIENCE AG, priority 2001, published 2009).
# How the values were obtained:
# Assay type in all cases: in vivo
# [1] = system: adult Musca domestica, strain Reichswald (OP, SP, carbamate-resistent); assay: Test with flies (Musca domestica); details: 100 ppm; treated filter paper; time not given
# Method: 20 mg of active compound are dissolved in 1 ml of dimethyl sulphoxide. More dilute concentrations are prepared by dilution with distilled water.
# 2 ml of the preparation of active compound are pipetted onto a filter paper dish (Ø 9.5 cm), which are placed in a Petri dish of corresponding diameter. After drying of the filter dishes 25 test animals are transferred in the Petri dishes and covered.
# After 1, 3, 5, 24 and 48 hours (or after the times given in the tables below) the activity of the preparation of active compound is determined. 100% means, that all flies have been killed, 0% means, that none of the flies have been killed.
# [2] = system: caterpillars of the army worm (Spodoptera exigua); assay: Spodoptera exigua test; details: 500 ppm, cabbage leaves dipped
# Method: To produce a suitable preparation of active compound, 1 part by weight of active compound is mixed with the stated amounts of solvent and emulsifier, and the concentrate is diluted with emulsifier-containing water to the desired concentration.
# Cabbage leaves (Brassica oleracea) are treated by being dipped into the preparation of active compound of the desired concentration and are populated with caterpillars of the army worm (Spodoptera exigua) while the leaves are still moist.
# After the desired period of time, the kill in % is determined. 100% means that all caterpillars have been killed; 0% means that none of the caterpillars have been killed.
# [3] = system: Boophilus microplus resistent/SP-resistent Parkhurst-strain, adult sucked female; assay: Test with Boophilus microplus resistent/SP-resistent Parkhurst-strain; details: 100 μg animal, injected into the abdomen; oviposition of fertile eggs after 7 days
# Method: […] More dilute concentrations are prepared by dilution with the same solvent.
# The test is carried out in 5-fold determination. […] The control of activity is made after 7 days for oviposition of fertile eggs. Eggs whose fertility cannot be seen from the outside are stored in glass tubes in a climate chamber until the larvae have been hatched. An activity of 100% means, that no tick has hatched fertile eggs.
# [4] = system: Diabrotica balteata larvae; assay: Diabrotica test (larvae in soil); details: 20 ppm (mg/l soil), Diabrotica balteata larvae on maize in treated soil
Compound,activity/kill rate in % [1],Kill rate in % after 7 d [2],other results
N#Cc1cnn(C2CN(C(=O)Nc3ccc(OC(F)(F)F)cc3)N=C2c2ccc(Cl)cc2)c1 (stereo not shown) [drawing 93],30%,,
N#Cc1cnn(C2CN(C(=O)Nc3ccc(OC(F)(F)F)cc3)N=C2c2ccc(Cl)cc2)c1 (stereo not shown) [drawing 58],,100%,
N#Cc1cnn(C2CN(C(=O)Nc3ccc(C(F)(F)F)cc3)N=C2c2ccc(Cl)cc2)c1 (stereo not shown) [drawing 94],30%,,
N#CCN(C(=O)N1CC(n2cc(C#N)cn2)C(c2ccc(Cl)cc2)=N1)c1ccc(OC(F)(F)F)cc1 (stereo not shown) [drawing 92],,,activity/kill rate in % [3]: 100%
N#Cc1cnn(C2CN(C(=O)Nc3ccc(SC(F)(F)F)cc3)N=C2c2ccc(Cl)cc2)c1 (stereo not shown) [drawing 60],,100%,
N#CCN(C(=O)N1CC(n2cc(C#N)cn2)C(c2ccc(Cl)cc2)=N1)c1ccc(OC(F)(F)F)cc1 (stereo not shown) [drawing 96],60%,,
N#Cc1cnn(C2CN(C(=O)Nc3ccc(SC(F)(F)F)cc3)N=C2c2ccc(Cl)cc2)c1 (stereo not shown) [drawing 37],,,Kill rate in % after 10 d [4]: 100%
N#Cc1cnn(C2CN(C(=O)Nc3ccc(S(=O)(=O)C(F)(F)F)cc3)N=C2c2ccc(Br)cc2)c1 (stereo not shown) [drawing 91],,,activity/kill rate in % [3]: 100%
N#Cc1cnn(C2CN(C(=O)Nc3ccc(C(F)(F)F)cc3)N=C2c2ccc(Cl)cc2)c1 (stereo not shown) [drawing 59],,100%,
N#Cc1cnn(C2CN(C(=O)Nc3ccc(OC(F)(F)F)cc3)N=C2c2ccc(Br)cc2)c1 (stereo not shown) [drawing 95],75%,,
